Laboratory results taken from ChEMBL document CHEMBL5724914, “Linking interpersonal differences in gut microbiota composition and drug biotransformation activity” (2024).

assay: (§1) The drug is tested on Z-025 corresponding to rabbit gut metagenome with ENA study accession number: PRJEB37062 and ENA sample accession number: ERS12561824 for biotransformation under anaerobic condition. The drug concentrations were measured over 9 timepoints collected between 0 and 24 hours of incubation by liquid-chromatography-coupled mass spectrometry (LC–MS); conditions: 2 µM
Note: call rule not given here.

Bacterial Biotransformation | SMILES
Compound NOT metabolized | COc1ccc([C@@H]2Sc3ccccc3N(CCN(C)C)C(=O)[C@@H]2OC(C)=O)cc1 [DILTIAZEM]
Compound NOT metabolized | OCCN(CCO)c1nc(N2CCCCC2)c2nc(N(CCO)CCO)nc(N3CCCCC3)c2n1 [DIPYRIDAMOLE]

assay: as §1, with “Z-023” for “Z-025”, “to” for “to rabbit gut”, “ERS12561822” for “ERS12561824”; conditions: 2 µM

Bacterial Biotransformation | SMILES
Compound metabolized | COc1ccc([C@@H]2Sc3ccccc3N(CCN(C)C)C(=O)[C@@H]2OC(C)=O)cc1 [DILTIAZEM]
Compound metabolized | OCCN(CCO)c1nc(N2CCCCC2)c2nc(N(CCO)CCO)nc(N3CCCCC3)c2n1 [DIPYRIDAMOLE]

assay: as §1, with “Z-022” for “Z-025”, “mouse” for “rabbit”, “ERS12561821” for “ERS12561824”; conditions: 2 µM

Bacterial Biotransformation | SMILES
Compound metabolized | COc1ccc([C@@H]2Sc3ccccc3N(CCN(C)C)C(=O)[C@@H]2OC(C)=O)cc1 [DILTIAZEM]
Compound metabolized | OCCN(CCO)c1nc(N2CCCCC2)c2nc(N(CCO)CCO)nc(N3CCCCC3)c2n1 [DIPYRIDAMOLE]

assay: as §1, with “Z-013” for “Z-025”, “ERS12561813” for “ERS12561824”; conditions: 2 µM

Bacterial Biotransformation | SMILES
Compound NOT metabolized | COc1ccc([C@@H]2Sc3ccccc3N(CCN(C)C)C(=O)[C@@H]2OC(C)=O)cc1 [DILTIAZEM]
Compound NOT metabolized | OCCN(CCO)c1nc(N2CCCCC2)c2nc(N(CCO)CCO)nc(N3CCCCC3)c2n1 [DIPYRIDAMOLE]

assay: as §1, with “Z-009” for “Z-025”, “pig” for “rabbit”, “ERS12561809” for “ERS12561824”; conditions: 2 µM

Bacterial Biotransformation | SMILES
Compound metabolized | COc1ccc([C@@H]2Sc3ccccc3N(CCN(C)C)C(=O)[C@@H]2OC(C)=O)cc1 [DILTIAZEM]
Compound metabolized | OCCN(CCO)c1nc(N2CCCCC2)c2nc(N(CCO)CCO)nc(N3CCCCC3)c2n1 [DIPYRIDAMOLE]

assay: as §1, with “Z-007” for “Z-025”, “rat” for “rabbit”, “ERS12561807” for “ERS12561824”; conditions: 2 µM

Bacterial Biotransformation | SMILES
Compound NOT metabolized | COc1ccc([C@@H]2Sc3ccccc3N(CCN(C)C)C(=O)[C@@H]2OC(C)=O)cc1 [DILTIAZEM]
Compound NOT metabolized | OCCN(CCO)c1nc(N2CCCCC2)c2nc(N(CCO)CCO)nc(N3CCCCC3)c2n1 [DIPYRIDAMOLE]

assay: as §1, with “Z-006” for “Z-025”, “mouse” for “rabbit”, “ERS12561806” for “ERS12561824”; conditions: 2 µM

Bacterial Biotransformation | SMILES
Compound NOT metabolized | COc1ccc([C@@H]2Sc3ccccc3N(CCN(C)C)C(=O)[C@@H]2OC(C)=O)cc1 [DILTIAZEM]
Compound NOT metabolized | OCCN(CCO)c1nc(N2CCCCC2)c2nc(N(CCO)CCO)nc(N3CCCCC3)c2n1 [DIPYRIDAMOLE]

assay: as §1, with “Z-004” for “Z-025”, “to” for “to rabbit gut”, “ERS12561804” for “ERS12561824”; conditions: 2 µM

Bacterial Biotransformation | SMILES
Compound metabolized | COc1ccc([C@@H]2Sc3ccccc3N(CCN(C)C)C(=O)[C@@H]2OC(C)=O)cc1 [DILTIAZEM]
Compound NOT metabolized | OCCN(CCO)c1nc(N2CCCCC2)c2nc(N(CCO)CCO)nc(N3CCCCC3)c2n1 [DIPYRIDAMOLE]

assay: as §1, with “WLS-350” for “Z-025”, “human” for “rabbit”, “ERS12561789” for “ERS12561824”; conditions: 2 µM

Bacterial Biotransformation | SMILES
Compound metabolized | COc1ccc([C@@H]2Sc3ccccc3N(CCN(C)C)C(=O)[C@@H]2OC(C)=O)cc1 [DILTIAZEM]
Compound metabolized | OCCN(CCO)c1nc(N2CCCCC2)c2nc(N(CCO)CCO)nc(N3CCCCC3)c2n1 [DIPYRIDAMOLE]

assay: as §1, with “WLS-073” for “Z-025”, “human” for “rabbit”, “ERS12561749” for “ERS12561824”; conditions: 2 µM

Bacterial Biotransformation | SMILES
Compound metabolized | COc1ccc([C@@H]2Sc3ccccc3N(CCN(C)C)C(=O)[C@@H]2OC(C)=O)cc1 [DILTIAZEM]
Compound NOT metabolized | OCCN(CCO)c1nc(N2CCCCC2)c2nc(N(CCO)CCO)nc(N3CCCCC3)c2n1 [DIPYRIDAMOLE]

assay: as §1, with “WLS-052” for “Z-025”, “human” for “rabbit”, “ERS12561747” for “ERS12561824”; conditions: 2 µM

Bacterial Biotransformation | SMILES
Compound NOT metabolized | COc1ccc([C@@H]2Sc3ccccc3N(CCN(C)C)C(=O)[C@@H]2OC(C)=O)cc1 [DILTIAZEM]
Compound metabolized | OCCN(CCO)c1nc(N2CCCCC2)c2nc(N(CCO)CCO)nc(N3CCCCC3)c2n1 [DIPYRIDAMOLE]

assay: as §1, with “WLS-010” for “Z-025”, “human” for “rabbit”, “ERS12561743” for “ERS12561824”; conditions: 2 µM

Bacterial Biotransformation | SMILES
Compound metabolized | COc1ccc([C@@H]2Sc3ccccc3N(CCN(C)C)C(=O)[C@@H]2OC(C)=O)cc1 [DILTIAZEM]
Compound metabolized | OCCN(CCO)c1nc(N2CCCCC2)c2nc(N(CCO)CCO)nc(N3CCCCC3)c2n1 [DIPYRIDAMOLE]

conditions: human gut metagenome, 24 h, 2 µM

Bacterial Biotransformation | SMILES
Compound NOT metabolized | COc1ccc([C@@H]2Sc3ccccc3N(CCN(C)C)C(=O)[C@@H]2OC(C)=O)cc1 [DILTIAZEM]
Compound metabolized | OCCN(CCO)c1nc(N2CCCCC2)c2nc(N(CCO)CCO)nc(N3CCCCC3)c2n1 [DIPYRIDAMOLE]

conditions: human gut metagenome, 24 h, 2 µM; remark: another data set of the same source

Bacterial Biotransformation | SMILES
Compound metabolized | COc1ccc([C@@H]2Sc3ccccc3N(CCN(C)C)C(=O)[C@@H]2OC(C)=O)cc1 [DILTIAZEM]
Compound metabolized | OCCN(CCO)c1nc(N2CCCCC2)c2nc(N(CCO)CCO)nc(N3CCCCC3)c2n1 [DIPYRIDAMOLE]

conditions: human gut metagenome, 24 h, 2 µM; remark: another data set of the same source

Bacterial Biotransformation | SMILES
Compound NOT metabolized | COc1ccc([C@@H]2Sc3ccccc3N(CCN(C)C)C(=O)[C@@H]2OC(C)=O)cc1 [DILTIAZEM]
Compound metabolized | OCCN(CCO)c1nc(N2CCCCC2)c2nc(N(CCO)CCO)nc(N3CCCCC3)c2n1 [DIPYRIDAMOLE]

conditions: human gut metagenome, 24 h, 2 µM; remark: another data set of the same source

Bacterial Biotransformation | SMILES
Compound metabolized | COc1ccc([C@@H]2Sc3ccccc3N(CCN(C)C)C(=O)[C@@H]2OC(C)=O)cc1 [DILTIAZEM]
Compound NOT metabolized | OCCN(CCO)c1nc(N2CCCCC2)c2nc(N(CCO)CCO)nc(N3CCCCC3)c2n1 [DIPYRIDAMOLE]

conditions: human gut metagenome, 24 h, 2 µM; remark: another data set of the same source

Bacterial Biotransformation | SMILES
Compound metabolized | COc1ccc([C@@H]2Sc3ccccc3N(CCN(C)C)C(=O)[C@@H]2OC(C)=O)cc1 [DILTIAZEM]
Compound metabolized | OCCN(CCO)c1nc(N2CCCCC2)c2nc(N(CCO)CCO)nc(N3CCCCC3)c2n1 [DIPYRIDAMOLE]

conditions: human gut metagenome, 24 h, 2 µM; remark: another data set of the same source

Bacterial Biotransformation | SMILES
Compound metabolized | COc1ccc([C@@H]2Sc3ccccc3N(CCN(C)C)C(=O)[C@@H]2OC(C)=O)cc1 [DILTIAZEM]
Compound metabolized | OCCN(CCO)c1nc(N2CCCCC2)c2nc(N(CCO)CCO)nc(N3CCCCC3)c2n1 [DIPYRIDAMOLE]

conditions: human gut metagenome, 24 h, 2 µM; remark: another data set of the same source

Bacterial Biotransformation | SMILES
Compound NOT metabolized | COc1ccc([C@@H]2Sc3ccccc3N(CCN(C)C)C(=O)[C@@H]2OC(C)=O)cc1 [DILTIAZEM]
Compound metabolized | OCCN(CCO)c1nc(N2CCCCC2)c2nc(N(CCO)CCO)nc(N3CCCCC3)c2n1 [DIPYRIDAMOLE]

conditions: human gut metagenome, 24 h, 2 µM; remark: another data set of the same source

Bacterial Biotransformation | SMILES
Compound metabolized | COc1ccc([C@@H]2Sc3ccccc3N(CCN(C)C)C(=O)[C@@H]2OC(C)=O)cc1 [DILTIAZEM]
Compound NOT metabolized | OCCN(CCO)c1nc(N2CCCCC2)c2nc(N(CCO)CCO)nc(N3CCCCC3)c2n1 [DIPYRIDAMOLE]
